The values below come from publication doi:10.1101/534982v1 (biorxiv, 2019).

Assay in all cases: fluorescence reverse titration
One experiment has as its target β-dimerization domain (Homo sapiens, UniProt P11277). The format is binding.
The target of another experiment is actin binding domain (Homo sapiens, UniProt P11277).
A further experiment concerns the target T1, α-dimerization domain (Homo sapiens, UniProt P02549).
T1 sequence (P02549 2002-2233): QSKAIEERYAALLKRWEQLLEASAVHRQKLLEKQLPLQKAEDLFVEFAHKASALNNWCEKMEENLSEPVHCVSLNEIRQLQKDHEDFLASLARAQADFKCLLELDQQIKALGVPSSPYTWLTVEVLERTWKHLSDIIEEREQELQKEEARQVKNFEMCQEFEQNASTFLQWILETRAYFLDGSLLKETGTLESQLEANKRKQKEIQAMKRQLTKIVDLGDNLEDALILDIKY
The format is binding.

The target of the next experiment is T2, α-tetramerization domain (Homo sapiens, UniProt P02549).
T2 sequence (P02549 1-158): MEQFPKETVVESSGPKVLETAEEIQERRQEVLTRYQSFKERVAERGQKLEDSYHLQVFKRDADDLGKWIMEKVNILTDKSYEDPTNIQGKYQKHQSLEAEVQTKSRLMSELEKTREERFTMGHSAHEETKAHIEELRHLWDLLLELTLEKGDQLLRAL
The format is binding.

Experiment [1] has as its target T3, Self-association domain (reconstituted) (Homo sapiens, UniProt P02549+P11277).
T3 sequence (P02549 1-158): T2 sequence (P02549 1-158)
T3 sequence (P11277 1895-2137): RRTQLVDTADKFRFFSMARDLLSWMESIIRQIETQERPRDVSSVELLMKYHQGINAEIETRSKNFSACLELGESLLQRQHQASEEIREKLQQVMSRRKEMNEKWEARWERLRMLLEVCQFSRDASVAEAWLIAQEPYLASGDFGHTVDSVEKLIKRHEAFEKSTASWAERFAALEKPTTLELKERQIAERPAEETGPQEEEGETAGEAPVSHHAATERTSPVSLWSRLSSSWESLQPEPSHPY
It is filed as binding.

In experiment [2] the target is Spectrin (dimeric human erythroid spectrin) (Homo sapiens, UniProt P02549+P11277). The format is binding.
Sequence of Spectrin (dimeric human erythroid spectrin) (P02549 whole entry, the tested form may be a part): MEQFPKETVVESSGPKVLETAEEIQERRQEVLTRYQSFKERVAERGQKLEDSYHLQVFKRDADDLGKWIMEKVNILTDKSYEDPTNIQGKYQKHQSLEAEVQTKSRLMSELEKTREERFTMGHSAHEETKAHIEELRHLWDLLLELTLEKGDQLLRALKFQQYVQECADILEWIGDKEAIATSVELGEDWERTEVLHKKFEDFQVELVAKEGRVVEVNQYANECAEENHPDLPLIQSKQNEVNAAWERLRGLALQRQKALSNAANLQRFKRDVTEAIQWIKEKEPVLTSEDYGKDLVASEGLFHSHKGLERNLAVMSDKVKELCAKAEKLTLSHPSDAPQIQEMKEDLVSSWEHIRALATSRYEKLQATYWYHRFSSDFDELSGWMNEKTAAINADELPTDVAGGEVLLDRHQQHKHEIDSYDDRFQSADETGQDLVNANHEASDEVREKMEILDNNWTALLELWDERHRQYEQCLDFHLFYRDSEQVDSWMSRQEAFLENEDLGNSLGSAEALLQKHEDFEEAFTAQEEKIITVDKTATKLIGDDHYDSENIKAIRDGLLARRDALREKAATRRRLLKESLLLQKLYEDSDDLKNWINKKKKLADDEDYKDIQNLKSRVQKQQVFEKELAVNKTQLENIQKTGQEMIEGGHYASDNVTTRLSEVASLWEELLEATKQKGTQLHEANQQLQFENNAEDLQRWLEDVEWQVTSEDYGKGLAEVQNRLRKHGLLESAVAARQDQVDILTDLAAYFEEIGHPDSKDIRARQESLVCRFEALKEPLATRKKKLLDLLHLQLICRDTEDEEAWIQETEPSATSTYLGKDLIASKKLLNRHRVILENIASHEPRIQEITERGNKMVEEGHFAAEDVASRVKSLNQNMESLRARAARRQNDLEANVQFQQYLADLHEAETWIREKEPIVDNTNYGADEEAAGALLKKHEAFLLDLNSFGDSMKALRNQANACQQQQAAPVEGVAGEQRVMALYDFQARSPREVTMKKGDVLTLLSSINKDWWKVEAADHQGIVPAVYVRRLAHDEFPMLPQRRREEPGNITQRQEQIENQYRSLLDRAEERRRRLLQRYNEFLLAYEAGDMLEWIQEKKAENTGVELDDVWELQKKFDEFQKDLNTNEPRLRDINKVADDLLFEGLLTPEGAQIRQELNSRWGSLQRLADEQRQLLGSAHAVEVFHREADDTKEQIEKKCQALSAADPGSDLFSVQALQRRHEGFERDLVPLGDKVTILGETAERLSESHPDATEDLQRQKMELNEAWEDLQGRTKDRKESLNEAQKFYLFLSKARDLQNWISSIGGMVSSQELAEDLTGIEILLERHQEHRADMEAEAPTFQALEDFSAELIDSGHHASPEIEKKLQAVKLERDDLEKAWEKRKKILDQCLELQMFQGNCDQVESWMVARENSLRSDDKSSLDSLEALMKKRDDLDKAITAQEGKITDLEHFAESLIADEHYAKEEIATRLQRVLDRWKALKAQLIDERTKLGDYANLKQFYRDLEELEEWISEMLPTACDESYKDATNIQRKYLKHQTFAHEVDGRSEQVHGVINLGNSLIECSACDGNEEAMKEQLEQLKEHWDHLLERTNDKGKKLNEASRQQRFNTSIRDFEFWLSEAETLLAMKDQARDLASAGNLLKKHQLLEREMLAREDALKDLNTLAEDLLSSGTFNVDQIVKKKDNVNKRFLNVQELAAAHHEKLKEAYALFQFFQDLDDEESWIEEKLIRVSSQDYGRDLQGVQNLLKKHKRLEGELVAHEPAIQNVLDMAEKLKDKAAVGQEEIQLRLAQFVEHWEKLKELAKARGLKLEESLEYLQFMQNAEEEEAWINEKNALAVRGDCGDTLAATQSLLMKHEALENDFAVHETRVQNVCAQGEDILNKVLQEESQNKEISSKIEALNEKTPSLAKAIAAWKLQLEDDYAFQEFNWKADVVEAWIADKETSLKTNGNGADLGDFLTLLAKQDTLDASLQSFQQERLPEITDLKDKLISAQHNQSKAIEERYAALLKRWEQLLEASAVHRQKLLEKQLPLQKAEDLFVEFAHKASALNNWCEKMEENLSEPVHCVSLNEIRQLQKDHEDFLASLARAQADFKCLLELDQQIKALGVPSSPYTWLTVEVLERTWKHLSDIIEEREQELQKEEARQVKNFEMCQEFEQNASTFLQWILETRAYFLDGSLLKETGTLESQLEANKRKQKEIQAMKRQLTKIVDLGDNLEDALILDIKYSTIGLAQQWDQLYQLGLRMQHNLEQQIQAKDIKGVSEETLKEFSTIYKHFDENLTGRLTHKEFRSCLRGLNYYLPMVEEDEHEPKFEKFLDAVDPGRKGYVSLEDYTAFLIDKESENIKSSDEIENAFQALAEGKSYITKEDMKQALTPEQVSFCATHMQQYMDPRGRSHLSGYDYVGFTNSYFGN
Sequence of Spectrin (dimeric human erythroid spectrin) (P11277 2-2137): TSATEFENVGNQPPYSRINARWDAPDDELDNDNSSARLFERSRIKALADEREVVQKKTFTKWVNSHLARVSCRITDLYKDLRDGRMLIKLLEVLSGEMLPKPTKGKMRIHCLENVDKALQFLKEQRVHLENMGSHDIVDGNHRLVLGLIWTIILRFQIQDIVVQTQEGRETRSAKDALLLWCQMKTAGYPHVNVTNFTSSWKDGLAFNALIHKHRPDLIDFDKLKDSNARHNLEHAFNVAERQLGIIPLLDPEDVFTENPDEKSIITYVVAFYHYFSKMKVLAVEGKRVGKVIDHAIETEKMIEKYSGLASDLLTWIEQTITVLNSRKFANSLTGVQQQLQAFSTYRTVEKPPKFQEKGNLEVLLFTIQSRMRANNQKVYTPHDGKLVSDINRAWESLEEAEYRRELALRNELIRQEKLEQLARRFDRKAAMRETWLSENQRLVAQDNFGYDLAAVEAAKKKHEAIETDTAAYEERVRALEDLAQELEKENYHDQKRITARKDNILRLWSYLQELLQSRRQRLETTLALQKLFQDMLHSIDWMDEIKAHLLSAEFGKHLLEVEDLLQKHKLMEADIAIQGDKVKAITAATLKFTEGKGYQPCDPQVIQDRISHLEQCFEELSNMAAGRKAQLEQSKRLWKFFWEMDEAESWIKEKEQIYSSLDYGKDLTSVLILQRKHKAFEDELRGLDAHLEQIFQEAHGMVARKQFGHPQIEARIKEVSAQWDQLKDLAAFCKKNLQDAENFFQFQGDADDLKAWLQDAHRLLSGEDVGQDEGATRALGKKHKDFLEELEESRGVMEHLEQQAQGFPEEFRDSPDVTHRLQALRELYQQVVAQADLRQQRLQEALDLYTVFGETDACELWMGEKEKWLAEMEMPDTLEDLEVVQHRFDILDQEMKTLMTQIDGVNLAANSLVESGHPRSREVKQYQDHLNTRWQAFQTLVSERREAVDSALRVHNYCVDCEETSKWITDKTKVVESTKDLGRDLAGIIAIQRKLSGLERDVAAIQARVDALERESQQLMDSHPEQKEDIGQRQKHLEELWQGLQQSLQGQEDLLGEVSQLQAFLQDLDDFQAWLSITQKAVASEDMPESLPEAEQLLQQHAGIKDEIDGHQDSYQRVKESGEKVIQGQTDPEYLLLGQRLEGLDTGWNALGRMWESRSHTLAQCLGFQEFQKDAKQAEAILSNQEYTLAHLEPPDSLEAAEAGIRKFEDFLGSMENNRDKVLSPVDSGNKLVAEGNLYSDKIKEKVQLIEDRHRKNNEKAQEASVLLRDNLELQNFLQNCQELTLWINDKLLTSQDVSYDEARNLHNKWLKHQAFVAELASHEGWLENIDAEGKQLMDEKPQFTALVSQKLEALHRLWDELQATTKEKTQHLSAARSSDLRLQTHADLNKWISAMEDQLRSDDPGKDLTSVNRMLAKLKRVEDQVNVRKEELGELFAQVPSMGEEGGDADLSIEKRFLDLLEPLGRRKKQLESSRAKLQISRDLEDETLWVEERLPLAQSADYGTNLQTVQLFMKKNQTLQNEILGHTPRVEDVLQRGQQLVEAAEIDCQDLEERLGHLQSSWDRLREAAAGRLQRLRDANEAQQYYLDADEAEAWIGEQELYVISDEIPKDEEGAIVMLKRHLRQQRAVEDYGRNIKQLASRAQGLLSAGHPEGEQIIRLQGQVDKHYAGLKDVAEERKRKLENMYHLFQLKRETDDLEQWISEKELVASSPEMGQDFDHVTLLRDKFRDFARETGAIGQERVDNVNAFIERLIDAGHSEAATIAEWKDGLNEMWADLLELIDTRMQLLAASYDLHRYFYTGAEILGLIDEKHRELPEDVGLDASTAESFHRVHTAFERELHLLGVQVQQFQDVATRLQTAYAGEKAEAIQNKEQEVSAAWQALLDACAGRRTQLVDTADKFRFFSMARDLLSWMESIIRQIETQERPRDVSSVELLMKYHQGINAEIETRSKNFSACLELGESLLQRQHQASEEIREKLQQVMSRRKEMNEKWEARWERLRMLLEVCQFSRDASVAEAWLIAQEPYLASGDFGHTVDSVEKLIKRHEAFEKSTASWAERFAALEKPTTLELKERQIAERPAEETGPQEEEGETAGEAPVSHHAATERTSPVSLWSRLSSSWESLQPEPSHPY
The target in another experiment is T4, spectrin repeat domain (Homo sapiens, UniProt P02549).
T4 sequence (P02549 1470-1576): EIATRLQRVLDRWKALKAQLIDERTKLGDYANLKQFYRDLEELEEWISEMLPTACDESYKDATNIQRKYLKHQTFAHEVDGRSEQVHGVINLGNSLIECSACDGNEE
The format is binding.

The target of a further experiment is T5, ankyrin binding domain (Homo sapiens, UniProt P11277).
T5 sequence (P11277 1657-1876): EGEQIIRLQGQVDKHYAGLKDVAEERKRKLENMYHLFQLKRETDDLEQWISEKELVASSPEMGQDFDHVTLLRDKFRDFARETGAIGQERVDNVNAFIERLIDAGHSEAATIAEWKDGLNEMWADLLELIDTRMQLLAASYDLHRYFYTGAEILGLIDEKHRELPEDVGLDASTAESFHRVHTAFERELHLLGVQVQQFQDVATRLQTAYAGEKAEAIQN

The target in the next experiment is T6, SH3 domain (Homo sapiens, UniProt P02549).
T6 sequence (P02549 973-1055): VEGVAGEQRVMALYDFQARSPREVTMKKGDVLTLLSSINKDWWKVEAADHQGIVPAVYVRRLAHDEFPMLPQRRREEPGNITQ
The format is binding.

A further experiment deals with T7, β-tetramerization domain (Homo sapiens, UniProt P11277).
T7 sequence (P11277 1895-2137): T3 sequence (P11277 1895-2137)
It is filed as binding.

Broadly, the Kd is the concentration at which binding is half-saturated. A lower Kd goes with a tighter complex.

Sequence of β-dimerization domain (P11277 271-500): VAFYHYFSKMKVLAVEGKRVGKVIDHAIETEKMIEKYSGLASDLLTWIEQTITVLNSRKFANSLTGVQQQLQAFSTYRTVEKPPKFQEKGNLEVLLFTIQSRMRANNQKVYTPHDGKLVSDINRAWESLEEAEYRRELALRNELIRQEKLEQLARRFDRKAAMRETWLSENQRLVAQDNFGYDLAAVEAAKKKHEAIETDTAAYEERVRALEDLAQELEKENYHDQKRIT
Sequence of actin binding domain (P11277 1-316): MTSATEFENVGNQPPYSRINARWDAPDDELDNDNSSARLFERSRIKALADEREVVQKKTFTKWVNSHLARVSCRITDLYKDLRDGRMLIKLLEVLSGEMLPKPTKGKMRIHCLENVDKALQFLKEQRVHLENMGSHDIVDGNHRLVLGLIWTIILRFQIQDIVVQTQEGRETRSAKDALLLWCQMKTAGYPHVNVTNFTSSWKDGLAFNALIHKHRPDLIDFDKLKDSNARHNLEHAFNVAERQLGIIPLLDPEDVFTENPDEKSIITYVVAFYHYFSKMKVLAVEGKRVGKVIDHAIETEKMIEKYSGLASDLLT

`O=S(=O)(O)c1cccc2cccc(Nc3ccccc3)c12` [ANS, 1-anilinonaphthalene-8-sulfonic acid]: the Kd on β-dimerization domain came out at 37.2 ± 3.1 µM; on actin binding domain, 64.3 ± 3.9 µM; on α-dimerization domain, 51.5 ± 3.2 µM; at α-tetramerization domain, 45.4 ± 3.1 µM; in experiment [1], 38.9 ± 2.3 µM; in [2], 30.1 ± 2 µM. Further, the Kd at spectrin repeat domain is 47.7 ± 2.9 µM; on ankyrin binding domain, 40 ± 2.8 µM; at SH3 domain, 64 ± 2.7 µM; on β-tetramerization domain it was 48.2 ± 3.3 µM.
